Test results from patent publication US9328112B2, “Tetracyclic CDK9 kinase inhibitors” (AbbVie Inc., priority 2014, dated 2016).

What was measured:
[1] = target: CDK9/Cyclin T1 (Homo sapiens (Human), UniProt P50750); test: CDK9 enzyme assay (LANCE ULight TR-FRET kinase assay); assay type: biochemical; settings: 1000 μM ATP, 100 nM ULight MBP, kinase reaction 1 hour
Procedure: CDK9 enzyme activities were measured using LANCE ULight TR-FRET kinase assay reagents (PerkinElmer, Waltham, Mass.). Compounds were diluted in 100% DMSO then diluted with 1:10 in serine/threonine kinase assay buffer containing 20 mM HEPES, 10 mM MgCl2, […], and 0.0075% Triton X-100. Equal volume of the compound dilutions was added to a final reaction mixture containing LANCE detection buffer (PerkinElmer CR97-100), 100 nM ULight MBP (PerkinElmer TRF0109M), 1000 μM ATP, and CDK9/Cyclin T1 (Carna Biosciences 04-110). The kinase reaction was carried out for 1 hour before addition of stopping buffer to a final of 20 mM EDTA and 0.5 nM of LANCE Ultra Europium anti-phospho-MBP antibody (PerkinElmer TRF0201M) in LANCE detection buffer. The reaction was incubated for 1 hour and the signal was read in Envision in TR-FRET mode (excitation at 320 nm and emission at 615/665 nm).

[2] = tested on: H929 cells; test: Cell viability assay (Cell TiterGlo); assay type: cell-based; settings: Cell TiterGlo luminescence
Procedure: The cell viability assay was performed using H929 cells. Cells were seeded in 96-well plates at 10,000 cells/well and, after overnight incubation, treated with compounds in a dose response of 3-fold dilutions from 10 μM to 0.005 μM ([…], 0.1% final DMSO concentration). After 24 hours at 37° C., cell viability was measured using Cell TiterGlo reagent (Promega) with a luminescence reader.

[3] = Homo sapiens, NCI-H929, 24 hours at 37° C.

CDK9/Cyclin T1, sequence (P50750 whole entry): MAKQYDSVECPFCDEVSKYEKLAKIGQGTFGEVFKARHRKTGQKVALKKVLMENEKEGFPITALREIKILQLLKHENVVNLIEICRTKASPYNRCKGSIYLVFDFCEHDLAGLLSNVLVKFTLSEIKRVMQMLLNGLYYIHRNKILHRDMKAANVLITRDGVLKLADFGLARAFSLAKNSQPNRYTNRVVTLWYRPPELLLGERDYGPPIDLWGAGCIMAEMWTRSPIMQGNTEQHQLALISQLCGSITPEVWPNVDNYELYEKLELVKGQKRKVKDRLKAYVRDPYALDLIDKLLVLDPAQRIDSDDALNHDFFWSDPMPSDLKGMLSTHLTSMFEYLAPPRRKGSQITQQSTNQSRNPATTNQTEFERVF
CDK9/Cyclin T1, sequence (O60563 whole entry partner): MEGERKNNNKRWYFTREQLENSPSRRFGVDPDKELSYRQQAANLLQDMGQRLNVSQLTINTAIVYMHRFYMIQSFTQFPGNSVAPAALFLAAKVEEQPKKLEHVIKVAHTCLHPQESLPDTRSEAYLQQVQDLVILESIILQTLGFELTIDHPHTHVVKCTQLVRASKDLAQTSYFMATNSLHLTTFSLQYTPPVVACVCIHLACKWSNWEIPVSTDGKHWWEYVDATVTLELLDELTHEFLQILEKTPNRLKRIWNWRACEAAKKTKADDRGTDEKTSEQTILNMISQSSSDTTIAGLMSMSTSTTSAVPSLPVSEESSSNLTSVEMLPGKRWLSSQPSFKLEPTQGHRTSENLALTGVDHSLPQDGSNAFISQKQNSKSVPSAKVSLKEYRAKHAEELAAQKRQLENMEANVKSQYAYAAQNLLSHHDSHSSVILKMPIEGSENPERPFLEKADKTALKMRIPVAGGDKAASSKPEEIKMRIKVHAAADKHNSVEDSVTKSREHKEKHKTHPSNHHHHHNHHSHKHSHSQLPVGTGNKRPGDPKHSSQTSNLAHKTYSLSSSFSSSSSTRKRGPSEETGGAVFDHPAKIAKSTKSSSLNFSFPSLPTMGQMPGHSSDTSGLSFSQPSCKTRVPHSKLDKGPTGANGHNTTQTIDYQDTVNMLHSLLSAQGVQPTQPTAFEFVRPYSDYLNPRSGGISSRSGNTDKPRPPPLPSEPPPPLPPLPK

SMILES: CNC(=O)N1CC=C(c2[nH]c3nccc4c3c2CN(C)c2ncccc2-4)CC1 [Example 139, N-methyl-4-(7-methyl-6,7-dihydro-4H-3,4,7,8-tetraazadibenzo[cd,f]azulen-5-yl)-3,6-dihydropyridine-1(2H)-carboxamide]
- IC50 [1]: 0.094 µM
- IC50 [2, 3]: 0.18 µM

SMILES: CN1Cc2c(C3=CCN(CC(=O)N4CCC[C@H]4CO)CC3)[nH]c3nccc(c23)-c2cc(F)ccc21 [Example 17, 2-[4-(10-fluoro-7-methyl-6,7-dihydro-4H-3,4,7-triazadibenzo[cd,f]azulen-5-yl)-3,6-dihydropyridin-1(2H)-yl]-1-[(2S)-2-(hydroxymethyl)pyrrolidin-1-yl]ethanone]
- IC50 [1]: 0.07 µM
- IC50 [2, 3]: 0.009 µM

SMILES: CN1Cc2c(C3=CCCN(CC(=O)O)CC3)[nH]c3nccc(c23)-c2cc(F)ccc21 [Example 90, [4-(10-fluoro-7-methyl-6,7-dihydro-4H-3,4,7-triazadibenzo[cd,f]azulen-5-yl)-2,3,6,7-tetrahydro-1H-azepin-1-yl]acetic acid]
- IC50 [1]: 0.17 µM
- IC50 [2, 3]: 1.9 µM

SMILES: CN1Cc2c(C3=CCC(C(=O)N4CC(O)C4)CC3)[nH]c3nccc(c23)-c2cc(F)ccc21 (centres unmarked) [Example 51, [4-(10-fluoro-7-methyl-6,7-dihydro-4H-3,4,7-triazadibenzo[cd,f]azulen-5-yl)cyclohex-3-en-1-yl](3-hydroxyazetidin-1-yl)methanone]
- IC50 [1]: 0.11 µM
- IC50 [2, 3]: 0.47 µM

SMILES: CN1Cc2c(C3=CCCN(S(C)(=O)=O)CC3)[nH]c3nccc(c23)-c2cc(F)ccc21 [Example 89, 10-fluoro-7-methyl-5-[1-(methylsulfonyl)-2,3,6,7-tetrahydro-1H-azepin-4-yl]-6,7-dihydro-4H-3,4,7-triazadibenzo[cd,f]azulene]
- IC50 [1]: 0.12 µM
- IC50 [2, 3]: 0.23 µM

SMILES: CN1Cc2c(C3=CCN(S(C)(=O)=O)CC3(C)C)[nH]c3nccc(c23)-c2cc(F)ccc21 [Example 113, 5-[3,3-dimethyl-1-(methylsulfonyl)-1,2,3,6-tetrahydropyridin-4-yl]-10-fluoro-7-methyl-6,7-dihydro-4H-3,4,7-triazadibenzo[cd,f]azulene]
- IC50 [1]: 0.65 µM
- IC50 [2, 3]: 2.7 µM

SMILES: CN1Cc2c(-c3cccc(CC(=O)O)c3)[nH]c3nccc(c23)-c2cc(F)ccc21 [Example 82, [3-(10-fluoro-7-methyl-6,7-dihydro-4H-3,4,7-triazadibenzo[cd,f]azulen-5-yl)phenyl]acetic acid]
- IC50 [1]: 0.1 µM
- IC50 [2, 3]: 4.7 µM

SMILES: CN1Cc2c(C3=CCCNC3)[nH]c3nccc(c23)-c2cc(F)ccc21 [Example 93, 10-fluoro-7-methyl-5-(1,2,5,6-tetrahydropyridin-3-yl)-6,7-dihydro-4H-3,4,7-triazadibenzo[cd,f]azulene]
- IC50 [1]: 0.046 µM
- IC50 [2, 3]: 0.11 µM

SMILES: CN(C)C(=O)CN1CC=C(c2[nH]c3nccc4c3c2CN(C)c2ccccc2-4)CC1 [Example 162, N,N-dimethyl-2-[4-(7-methyl-6,7-dihydro-4H-3,4,7-triazadibenzo[cd,f]azulen-5-yl)-3,6-dihydropyridin-1(2H)-yl]acetamide]
- IC50 [1]: 0.115 µM
- IC50 [2, 3]: 0.021 µM

SMILES: CN(CCO)C(=O)CN1CC=C(c2[nH]c3nccc4c3c2CN(C)c2cc(F)c(F)cc2-4)CC1 [Example 157, 2-[4-(9,10-difluoro-7-methyl-6,7-dihydro-4H-3,4,7-triazadibenzo[cd,f]azulen-5-yl)-3,6-dihydropyridin-1(2H)-yl]-N-(2-hydroxyethyl)-N-methylacetamide]
- IC50 [1]: 0.046 µM
- IC50 [2, 3]: 0.01 µM

SMILES: CN1Cc2c(C3=C[C@@H](CO)NCC3)[nH]c3nccc(c23)-c2cc(F)ccc21 [Example 155, [(2S)-4-(10-fluoro-7-methyl-6,7-dihydro-4H-3,4,7-triazadibenzo[cd,f]azulen-5-yl)-1,2,5,6-tetrahydropyridin-2-yl]methanol]
- IC50 [1]: 0.041 µM
- IC50 [2, 3]: 0.039 µM

SMILES: CN1Cc2c(C3=CCN([C@H]4CC[C@H](CC(=O)O)CC4)CC3)[nH]c3ncc(F)c(c23)-c2cc(F)ccc21 [Example 167, {trans-4-[4-(1,10-difluoro-7-methyl-6,7-dihydro-4H-3,4,7-triazadibenzo[cd,f]azulen-5-yl)-3,6-dihydropyridin-1(2H)-yl]cyclohexyl}acetic acid]
- IC50 [1]: 0.067 µM
- IC50 [2, 3]: 0.01 µM

SMILES: CN1Cc2c(C3=CCN([C@H]4CC[C@H](CC(=O)O)CC4)CC3)[nH]c3nccc(c23)-c2cc(F)c(F)cc21 [Example 146, {trans-4-[4-(9,10-difluoro-7-methyl-6,7-dihydro-4H-3,4,7-triazadibenzo[cd,f]azulen-5-yl)-3,6-dihydropyridin-1(2H)-yl]cyclohexyl}acetic acid]
- IC50 [1]: 0.082 µM
- IC50 [2, 3]: 0.032 µM

SMILES: CN(C)C(=O)CN1CC=C(c2[nH]c3ncc(F)c4c3c2CN(C)c2ccc(F)cc2-4)CC1 [Example 66, 2-[4-(1,10-difluoro-7-methyl-6,7-dihydro-4H-3,4,7-triazadibenzo[cd,f]azulen-5-yl)-3,6-dihydropyridin-1(2H)-yl]-N,N-dimethylacetamide]
- IC50 [1]: 0.044 µM
- IC50 [2, 3]: 0.01 µM

SMILES: CN1Cc2c(C3=CCN(CC(=O)O)CC3)[nH]c3ncc(F)c(c23)-c2cc(F)ccc21 [Example 67, [4-(1,10-difluoro-7-methyl-6,7-dihydro-4H-3,4,7-triazadibenzo[cd,f]azulen-5-yl)-3,6-dihydropyridin-1(2H)-yl]acetic acid]
- IC50 [1]: 0.048 µM
- IC50 [2, 3]: 0.13 µM

SMILES: CC[C@H]1c2c(C3=CCN([C@H]4C[C@@H](C(=O)OC)C4)CC3)[nH]c3nccc(c23)-c2cc(F)ccc2N1C [Example 186, methyl cis-3-{4-[(6S)-6-ethyl-10-fluoro-7-methyl-6,7-dihydro-4H-3,4,7-triazadibenzo[cd,f]azulen-5-yl]-3,6-dihydropyridin-1(2H)-yl}cyclobutanecarboxylate]
- IC50 [1]: 0.064 µM
- IC50 [2, 3]: 0.013 µM

SMILES: CN1CCc2c(C3=CCN([C@H]4C[C@@H](C(=O)O)C4)CC3)[nH]c3nccc(c23)-c2cc(F)ccc21 [Example 188, cis-3-[4-(8-fluoro-5-methyl-1,3,4,5-tetrahydro-1,5,12-triazabenzo[4,5]cycloocta[1,2,3-cd]inden-2-yl)-3,6-dihydropyridin-1(2H)-yl]cyclobutanecarboxylic acid]
- IC50 [1]: 0.15 µM
- IC50 ([2]; 24 hours at 37° C.): 0.29 µM

SMILES: CN1Cc2c(C3=CCN[C@@H](CO)C3)[nH]c3nccc(c23)-c2cc(F)ccc21 [Example 156, [(2R)-4-(10-fluoro-7-methyl-6,7-dihydro-4H-3,4,7-triazadibenzo[cd,f]azulen-5-yl)-1,2,3,6-tetrahydropyridin-2-yl]methanol]
- IC50 [1]: 0.03 µM
- IC50 [2, 3]: 0.022 µM

SMILES: CN1Cc2c(C3=CCN(S(C)(=O)=O)CC3)[nH]c3ncc(F)c(c23)-c2ccccc21 [Example 161, 1-fluoro-7-methyl-5-[1-(methylsulfonyl)-1,2,3,6-tetrahydropyridin-4-yl]-6,7-dihydro-4H-3,4,7-triazadibenzo[cd,f]azulene]
- IC50 [1]: 0.04 µM
- IC50 [2, 3]: 0.065 µM

SMILES: CN1Cc2c(C3=CCCN(C4CCC(=CC(=O)O)CC4)CC3)[nH]c3nccc(c23)-c2cc(F)ccc21 (centres unmarked) [Example 184, {4-[4-(10-fluoro-7-methyl-6,7-dihydro-4H-3,4,7-triazadibenzo[cd,f]azulen-5-yl)-2,3,6,7-tetrahydro-1H-azepin-1-yl]cyclohexylidene}acetic acid]
- IC50 [1]: 0.13 µM
- IC50 [2, 3]: 0.19 µM

SMILES: CN1Cc2c(C3=C[C@@H]4COC(=O)N4CC3)[nH]c3nccc(c23)-c2cc(F)c(F)cc21 [Example 125, (8aR)-7-(9,10-difluoro-7-methyl-6,7-dihydro-4H-3,4,7-triazadibenzo[cd,f]azulen-5-yl)-1,5,6,8a-tetrahydro[1,3]oxazolo[3,4-a]pyridin-3-one]
- IC50 [1]: 0.054 µM
- IC50 [2, 3]: 0.3 µM

SMILES: COCCS(=O)(=O)N1CC2C=C(c3[nH]c4nccc5c4c3CN(C)c3ccc(F)cc3-5)CC2C1 (centres unmarked) [Example 69, 10-fluoro-5-{2-[(2-methoxyethyl)sulfonyl]-1,2,3,3a,4,6a-hexahydrocyclopenta[c]pyrrol-5-yl}-7-methyl-6,7-dihydro-4H-3,4,7-triazadibenzo[cd,f]azulene]
- IC50 [1]: 0.08 µM
- IC50 [2, 3]: 0.095 µM

SMILES: CN1CCc2c(C3=CCN([C@H]4C[C@H](C(=O)O)C4)CC3)[nH]c3nccc(c23)-c2cc(F)ccc21 [Example 190, trans-3-[4-(8-fluoro-5-methyl-1,3,4,5-tetrahydro-1,5,12-triazabenzo[4,5]cycloocta[1,2,3-cd]inden-2-yl)-3,6-dihydropyridin-1(2H)-yl]cyclobutanecarboxylic acid]
- IC50 [1]: 0.16 µM
- IC50 ([2]; 24 hours at 37° C.): 0.19 µM

SMILES: CNS(=O)(=O)CC(=O)N1CC=C(c2[nH]c3nccc4c3c2CN(C)c2ccc(F)cc2-4)CC1 [Example 25, 2-[4-(10-fluoro-7-methyl-6,7-dihydro-4H-3,4,7-triazadibenzo[cd,f]azulen-5-yl)-3,6-dihydropyridin-1(2H)-yl]-N-methyl-2-oxoethanesulfonamide]
- IC50 [1]: 0.022 µM
- IC50 [2, 3]: 0.065 µM

SMILES: CC[C@H]1c2c(C3=CCN(CC(=O)N(C)C)CC3)[nH]c3nccc(c23)-c2cc(F)ccc2N1C [Example 168, 2-{4-[(6S)-6-ethyl-10-fluoro-7-methyl-6,7-dihydro-4H-3,4,7-triazadibenzo[cd,f]azulen-5-yl]-3,6-dihydropyridin-1(2H)-yl}-N,N-dimethylacetamide]
- IC50 [1]: 0.06 µM
- IC50 [2, 3]: 0.008 µM
